# Laboratory results from patent US6521608B1, “Vitamin D and its analogs in the treatment of tumors and other hyperproliferative disorders” (Oregon Health & Science University, priority 1998, dated 2003).
# “And” between values parts separate entries of the source, which are not always exact repeats. Equal values may be shown once. Read-outs that look alike come from different tables or passages of the source.
# Assays:
# [1] = cited from earlier work
# ovarian cancer = details: continuous dose; cited from earlier work
# myelodysplastic syndrome = details: 2 mcg daily for 8 weeks or longer, cited from earlier work
# [2] = tested on: hormone refractory prostate cancer; details: daily oral dose of 0.5-1.5 mcg, fourteen patients; cited from earlier work
# [3] = tested on: LNCaP human prostate cancer cells; details: LNCaP cells in vitro, Skowronski et al., cited from earlier work
# [4] = tested on: malignancy refractory to standard therapy; experiment: Trial of weekly pulse oral calcitriol: tumor response (WHO guidelines, tumor markers); type: in vivo, human
# Experimental: (§1) Eligibility criteria included histologically confirmed malignancy refractory to standard therapy; age ≧18 years; expected survival of >2 months; ECOG performance status ≦2; hematocrit ≧30; serum creatinine ≦1.2 mg/dL; serum calcium ≦10.5 mg/dL; serum phosphate <4.2 mg/dL; ALT ≦60 IUIL; total serum bilirubin <2 mg/dL. Exclusion criteria included pregnancy, history of hypercalcemia, kidney stones, heart failure or significant heart disease including myocardial infarction in the last 3 months, known cardiac ejection fraction less than 30%, current digoxin therapy, thiazide diuretic therapy within 7 days, bisphosphonate treatment within 4 weeks, systemic steroid therapy within 2 weeks, and unwillingness or inability to stop all magnesium containing antacids, bile resin binding drugs, or calcium supplements for the duration of the study.
# (§2) Patients were asked to maintain a reduced calcium diet for the four treatment weeks, with a goal of less than 500 mg per day, as described in Example 1. Calcitriol (Rocaltrol®, Roche Pharmaceuticals) was given orally once a week for four weeks. Each weekly dose was given in four divided doses given hourly over four hours. The starting dose was 0.06 μg/kg.
# After completing the four week treatment period, patients were monitored for four additional weeks. Serum calcium was checked in weeks 5 and 7 and tumor measurements were obtained in week 7. All toxicities were graded according to NCI Common Toxicity Criteria. Response was assessed according to WHO guidelines.
# [5] = Trial of weekly pulse oral calcitriol: serum calcium, serum phosphate, 24 hour urinary calcium; type: in vivo, human; details: for Mean serum phosphate: 3.43 (SD 0.56) prior to treatment; for Mean serum calcium: 9.55 (SD 0.57) prior to treatment
# Experimental: as §2
# (§3) Complete blood count, serum creatinine, total serum bilirubin, ALT, alkaline phosphatase were monitored weekly. Serum calcium and phosphate were checked on the treatment day (day 1), and on days 2 and 3. Twenty-four hour urinary calcium excretion was measured on day 2. The 1,25-dihydroxyvitaunin D levels were measured by ^125I radioimmunoassay (Incstar, Stillwater, Minn.) and by a radioreceptor assay using calf thymus 1,25-dihydroxyvitamin D receptor (Endocrine Sciences, Calabasas Hills, Calif.). Peak levels were measured two hours after all the pills had been ingested. Trough levels were measured approximately 48 hours later.
# [6] = relative to calcitriol = 1; cited from earlier work
# [7] = Trial of weekly pulse oral calcitriol: plasma/serum 1,25-dihydroxyvitamin D levels (radioimmunoassay, radioreceptor assay); type: in vivo, human; design: Mean 48 hour 1,25-dihydroxyvitamin D level: unit not given here; details: for Mean peak 1,25-dihydroxyvitamin D level: peak two hours after all pills; for Mean 48 hour 1,25-dihydroxyvitamin D level: trough approximately 48 hours later
# Experimental: In this example a person with metastatic malignant melanoma of the right jaw received a dose of 37 mcg of calcitriol (Rocaltrol, Roche) administered as 74 tablets (0.5 mcg each tablet) divided into four nearly equal doses given in hour one, two, three and four. The patient received this same therapy on day 1, 8, 15 and 22, and observed until at least day 56. The level of calcitriol in a plasma sample obtained two hours after the last dose of calcitriol (on week one) was determined using a commercial assay at Endocrine Sciences, Inc. The level was 1826 pg/ml, compared to the range for calcitriol levels in normal controls being 21 to 65 pg/ml.
# as §2, §3
# [8] = Trial of weekly pulse oral calcitriol: toxicities graded by NCI Common Toxicity Criteria; type: in vivo, human
# Experimental: as §1, §2, §3
# After completing the four week treatment period, patients were monitored for four additional weeks. Serum calcium was checked in weeks 5 and 7 and tumor measurements were obtained in week 7. […] Response was assessed according to WHO guidelines. […]
# [9] = tested on: breast carcinoma metastatic to the skeleton; experiment: Case history: treatment of breast cancer with weekly pulse calcitriol; type: in vivo, human; details: 11 mcg po on day 1, 8, 15, 22; for serum tumor marker CA15-3: 445 pre-treatment
# From the text: In this example, a person with breast carcinoma metastatic to numerous sites in the skeleton received a dose of 11 mcg of calcitriol (Rocaltrol, Roche) administered as […] (0.5 mcg each tablet) divided into four nearly equal doses given in hour one, two, three and four. The patient received this same therapy on day 1, 8, 15 and 22, and then was observed on study until day 56, and tolerated the treatment well. […] Objective benefits included a progressive decrease in the serum tumor marker CA15-3 from 445 (pre-treatment) to 365 (day 27), 365 (day 48) and 320 (day 70). […] No new lesions or pathologic fractures identified were identified by day 64.
# [10] = single oral dose of 4 mcg, healthy volunteers, Mason et al.
compound,measurement,setting,value
"C=C1/C(=C\C=C2/CCC[C@]3(C)[C@@H]([C@H](C)CCCC(C)(C)O)CC[C@@H]23)C[C@@H](O)C[C@@H]1O [calcitriol, 1α,25-dihydroxycholecalciferol]","peak 1,25-dihydroxyvitamin D serum concentrations","[1]; 2 mcg single oral dose, healthy volunteers, Papapoulus et al.",0.235 nM and 0.351 nM
same,patients with a serum calcium above 10.8,"[1]; 4 mcg per day for 4 days, postmenopausal women, no clinically significant hypercalcemia, Geusens et al.",Four of the 27
same,"peak of stable serum levels of 1,25-dihydroxyvitamin D","[1]; 32 mcg/day for 3 months, patients with osteopetrosis, no hypercalcemia, Key et al.",2.32 nM
same,duration of hypercalcemic effect,[1]; in vivo,3 to 5 days
same,serum half life,[1]; in vivo,3 to 6 h
same,time after administration at which intestinal absorption of calcium begins to increase,[1]; in vivo,2 h
same,time of maximal hypercalcemic effect,[1]; in vivo,10 h
same,time at which peak serum concentration is reached,[1]; replacement therapy doses,2 h
same,"peak 1,25-dihydroxyvitamin D serum concentrations",[1]; [10],0.42 nM
same,serum calcium,[1]; [10],no elevation in serum calcium
same,serum calcium,"[1]; up to 2.7 mcg/day for 7 to 15 days, normal volunteers, Brickman et al.",no significant elevations in serum calcium were observed
same,"stable 1,25-dihydroxyvitamin D serum levels","[1]; up to 3 mcg/day for 6-12 days, normal volunteers, Adams et al.",0.184 to 0.235 nM
same,elevation in serum calcium,"[1]; up to 3 mcg/day for 6-12 days, patients on a low calcium diet, Adams et al.",None of the patients
same,hypercalcemia,ovarian cancer,encountered hypercalcemia
same,patients who experienced symptomatic hypercalcemia,myelodysplastic syndrome; 18 patients,4
same,patients with minor and transient improvements in the peripheral blood counts,myelodysplastic syndrome,Eight of 18
same,patients who experienced hypercalcemia,[2],Thirteen
same,response,[2],no significant response was demonstrated
same,concentration giving measurable growth inhibition,[3],0.1 nM
same,IC50,[3]; read-out: concentration giving 50% growth inhibition,1 nM
same,decline in serum AFP level,"[4]; hepatocellular carcinoma patient, two cycles (0.80 and 1.60 μg/kg)",70%
same,patients with measurable disease with evidence of progressive disease,[4]; of eight patients,three
same,patients without measurable disease with tumor marker or clinical evidence of progressive disease,[4]; of seven patients,three
same,PSA course in a prostate cancer patient,"[4]; two cycles of therapy, rapidly rising PSA prior to enrollment",stable PSA for the entire 16 weeks
same,patients without measurable disease with no evidence of progression,[4]; weekly pulse calcitriol,Four of seven
same,patients with measurable disease who had stable disease,"[4]; weekly pulse calcitriol, tumor measurements week 7",Five of eight
same,"serum calcium and other chemical and hematological parameters, melanoma patient","[5]; 37 mcg po on day 1, 8, 15, 22",remained normal
same,Mean serum phosphate,"[5]; 24 hours after dose, normal range 2.2-4.2",3.98 (SD 0.57) mg/dL
same,Mean serum calcium,"[5]; 24 hours after dose, normal range 8.5-10.5",9.76 (SD 0.63) mg/dL
same,Mean serum phosphate,"[5]; 48 hours after dose, p<0.0001",3.86 (SD 0.53) mg/dL
same,Mean serum calcium,"[5]; 48 hours after dose, p=0.0002",9.88 (SD 0.68) mg/dL
same,time for calcium levels above the normal range to return to normal,[5]; no intervention,≤ 2 days
same,"24 hour urinary calcium excretion, range","[5]; on treatment, day 2 of each treatment week, 44-292 prior to treatment",59 to 594 mg
same,Mean 24 hour urinary calcium excretion,"[5]; on treatment, day 2 of each treatment week, 130 (SD 62) prior to treatment, normal range 100-300",263 (SD 125) mg
same,calcemic index (CI),[6],1
same,"Serum 1,25-dihydroxyvitamin D trough levels","[7]; 48 hours, normal range 0.05-0.16 nM",returned to normal or near normal levels by 48 hours
same,"Mean peak 1,25-dihydroxyvitamin D level","[7]; dose level 0.06 μg/kg po over four hours, 1 patient",0.71 nM
same,"Mean 48 hour 1,25-dihydroxyvitamin D level",[7]; dose level 0.06 μg/kg po,0.27
same,"Mean peak 1,25-dihydroxyvitamin D level","[7]; dose level 0.24 μg/kg po over four hours, 1 patient",2.27 nM
same,"Mean 48 hour 1,25-dihydroxyvitamin D level",[7]; dose level 0.24 μg/kg po,0.21
same,"Mean peak 1,25-dihydroxyvitamin D level","[7]; dose level 0.48 μg/kg po over four hours, 2 patients",4.11 nM
same,"Mean 48 hour 1,25-dihydroxyvitamin D level",[7]; dose level 0.48 μg/kg po,0.23
same,"Mean peak 1,25-dihydroxyvitamin D level","[7]; dose level 0.80 μg/kg po over four hours, 1 patient",3.53 nM
same,"Mean peak 1,25-dihydroxyvitamin D level","[7]; dose level 0.96 μg/kg po over four hours, 1 patient",3.83 nM
same,"Mean peak 1,25-dihydroxyvitamin D level","[7]; dose level 1.60 μg/kg po over four hours, 2 patients",3.65 nM
same,"Mean peak 1,25-dihydroxyvitamin D level","[7]; dose level 1.92 μg/kg po over four hours, 1 patient",3.34 nM
same,"Mean peak 1,25-dihydroxyvitamin D level","[7]; dose level 2.00 μg/kg po over four hours, 6 patients",4.07 nM
same,"Mean 48 hour 1,25-dihydroxyvitamin D level",[7]; dose level 2.00 μg/kg po,0.26
same,"Mean peak 1,25-dihydroxyvitamin D level","[7]; dose level 2.80 μg/kg po over four hours, 2 patients",2.96 nM
same,effect of dose escalation beyond 0.48 μg/kg on peak calcitriol levels,[7]; dose levels up to 2.80 μg/kg po,did not result in further increases in peak calcitriol levels
same,concentration at 2 h,"[7]; male, human, plasma, melanoma patient, 37 mcg po in four hourly doses, sample two hours after the last dose, week one, normal controls 21 to 65 pg/ml, read-out: level of calcitriol in plasma",1.83 ng/mL
same,Peak blood levels of calcitriol above the upper limit of normal,[7]; pulsed weekly administration,about 25 fold
same,clearance of calcitriol from the blood,[7]; weekly pulse schedule,essentially completely cleared from the blood by day 3
same,peak blood calcitriol levels in patients,"[7]; weekly pulse schedule, highest level seen",up to 8.9 nM
same,deaths in the trial,"[8]; 15 patients, 20 cycles",No deaths occurred
same,intermittent dose tolerated without hypercalcemia,[8]; given intermittently,≤ 0.48 µg/kg
same,dose-limiting hypercalcemic toxicity,[8]; in vivo,No patient developed dose-limiting hypercalcemic toxicity
same,Radiologic evaluation of areas of known bony involvement,[9],progressive sclerosis of multiple lesions in the pelvis and right hip
same,Subjective beneficial effects,[9],a reduction in pain and in analgesia required
same,serum tumor marker CA15-3,[9]; day 27,365
same,serum tumor marker CA15-3,[9]; day 48,365
same,serum tumor marker CA15-3,[9]; day 70,320
